Legend:
[1] = Stability test in acid aqueous solution (Solution 1 of the Japanese Pharmacopoeia, pH 1.2), remaining compound by HPLC; format: physicochemical; conditions: Solution 1 (pH 1.2), 2 mg/ml, stirred at 37°C, HPLC
Method: In order to confirm the stability of the compounds of the present invention in an acid aqueous solution, stability was tested on the fumarate of 6-[3-[N-[2-(4-methanesulfonylaminophenyl)ethyl]-N-propylamino]propyl]-1,3-dimethyl-2,4(1H,3H)pyrimidinedione (the compound obtained in Example 118; hereinafter referred to as compound A) which is a compound in accordance with the present invention, and 1,3-dimethyl-6-{2-[N-ethyl-3-phenylpropylamino]ethylamino}2,4(1H,3H)-pyrimidinedione (hereinafter referred to as compound B) which is a pyrimidinedione derivative having a substituted amino group at the 6-position of the pyrimidinedione ring as described in European Publication No. 454,498 A2 and was used for purposes of comparison.
Solution 1 (pH 1.2) described in the Japaense Pharmacopoeia was prepared by adding 7.0 ml of hydrochloric acid and water to 2.0 g of sodium chloride so as to give the final volume of 1,000 ml.
Compounds A and B were dissolved in Solution 1 at a concentration of 2 mg/ml and the resulting solutions were stirred at 37°C. Thus, changes with time in the percentages of the remaining compounds A and B were examined by HPLC.

[2] = Toxicity test (mortality rate 24 hours after administration); conditions: mouse, in vivo, ip; 100 mg/kg (i.p.); twenty-four hours after administration; groups of three mice
Method: The test compounds were separately administered to mice (ddy strain, male). The administration of each compound was carried out intraperitoneally (i.p.) in a dose of 100 mg/kg. Twenty-four hours after the administration, the mortality rate of the mice (in groups of three) was examined.

right Purkinje fiber = test: Effect on myocardial action potential duration (APD75) in isolated, perfused Purkinje fiber; format: cell-based, mongrel adult dog; conditions: Canis lupus familiaris, 20 min, 20 minutes' incubation, field stimulus of 1 Hz, 37°C, read-out: T (%), percent prolongation of myocardial action potential duration (APD75)
Method: After a mongrel adult dog was anesthetized by the intravenous administration of 30 mg/kg of pentobarbital, the heart was excised therefrom. Then, the right Purkinje fiber was isolated in a nutrient fluid (i.e., Tyrode's solution). The isolated right Purkinje fiber was fixed in a constant-temperature bath (20 ml) at 37°C and perfused with Tyrode's solution. In this state, the myocardial action potential duration (APD75) was measured before and after the administration of each test compound. Then, the percent prolongation of myocardial action potential duration (T) after the administration of each test compound was calculated according to the following equation. T(%) =(B - A)/(A)x 100 [formula] where A: APD75 before administration B: APD75 after administration
APD75 was measured as follows: A field stimulus of 1 Hz was given to the right Purkinje fiber, and any change in action potential was detected by a glass microelectrode (10-20 MΩ) penetrated into a Purkinje fiber and monitored on an oscilloscope via an amplifier. The waveform on the oscilloscope was analyzed by means of a computer, and the duration beween the point of action potential generation adn the point of 75% repolarization was defined as APD75. The test compounds shown in Table 2 were separately added to the perfusing nutrient fluid, and after 20 minutes' incubation was recorded. This test was carried out according to the method of Sato et al. [S. Sato, K. Hashimoto; Arzneimittel Forschung, 34(1), 3a, 376-380(1984)].

ventricular muscle = test: Effect on ventricular muscle refractory period (ERP) under ventricular pacing in anesthetized dog; format: in vivo, mongrel adult dog; conditions: ventricular pacing at 400 msec
Method: According to the method described below, the refractory period was measured before and after the intravenous administration of each test compound, and the percent prolongation of refractory period (ERP) was calculated according to the following equation. ERP prolongation (%) =(W - Y)/(Y)x 100 [formula] where W: Refractory period after administration Y: Refractory period before administration
After a mongrel adult dog was anesthetized by the intravenous (i.v.) administration of 30 mg/kg of pentobarbital, the chest was opened on the right side. Then, a set of silver-silver chloride electrodes spaced by 3 mm was sewn on the right ventricle, and […] electrical stimuli (a duration of 4 msec, and a current intensity equal to twice the threshold) were given at an interval of 400 msec. Thereafter, a small amount of alcohol was injected into a sinus artery in order to destroy the pacemaker activity, and the ventricular refractory period (ERP) was measured under ventricular pacing. Specifically, one train comprised a series of stimuli having an interval of 400 msec, and the interval between trains was usually 400 msec. During measurement of the refractory period, this interval was shortened by decrements of 10 msec, and the interval between trains at which the response to the first stimulus of the train disappeared was regarded as the refractory period. These electrical stimuli were given by programmed stimulation using a heart stimulation apparatus (Diamedical Co., Ltd.; DHM-226-3).

## CCCN(CCCc1cc(=O)n(C)c(=O)n1C)CCc1ccc(NS(C)(=O)=O)cc1 [Example 118, 6-[3-[N-[2-(4-methanesulfonylaminophenyl)ethyl]-N-propylamino]propyl]-1,3-dimethyl-2,4(1H,3H)pyrimidinedione]
[1]; 0 hr
  Percentage of remaining compound: 100%
[1]; jp solution 1, 3 hr, read-out: Percentage of remaining compound
  remaining at 3 h: 100%
[1]; jp solution 1, 6 hr, read-out: Percentage of remaining compound
  remaining at 6 h: 99%
[2]
  mortality at 24 h: 0%
Right Purkinje fiber; Dose 1 x 10^-6 M
  activation at 1 µM: 16%
Right Purkinje fiber; Dose 10 x 10^-6 M
  activation at 10 µM: 54%
Right Purkinje fiber; Dose 100 x 10^-6 M
  activation at 100 µM: 81%
Ventricular muscle; Dose 0.1 mg/kg i.v.
  ERP (%), percent prolongation of refractory period: 6.7%
Ventricular muscle; Dose 0.3 mg/kg i.v.
  ERP (%), percent prolongation of refractory period: 20.0%
Ventricular muscle; Dose 1.0 mg/kg i.v.
  ERP (%), percent prolongation of refractory period: 33.3%

Reference: EP0697407B1, “Pyrimidinedione derivatives and antiarrhythmic compositions containing same” (MITSUI TOATSU CHEMICALS, Inc., priority 1994, dated 1996)
